Results on 1 compound are retold here after patent US20130244257A1, “INTEGRATED MICROFLUIDIC RADIOASSAY AND IMAGING PLATFORM FOR SMALL SAMPLE ANALYSIS” (THE REGENTS OF THE UNIVERSITY OF CALIFORNIA, priority 2010, published 2013).

This test deals with BCR-ABL. As to the kind of experiment: effect of the buffer surfactant on BCR-ABL kinase activity in the in vitro kinase radio assay. The format is biochemical. Conditions: 0.1% in all buffers. The procedure:
Off-Chip And On-Chip In Vitro Kinase Radio Assays were performed for comparison. In vitro kinase assays were performed using established protocols for bead-based immunoaffinity capture of a specific kinase followed by kinase reactions in the presence of a kinase-specific peptide substrate and ^32P labeled ATP. The microfluidic on-chip assay was developed using reagents that were compatible and efficient in the context of microfluidic channels and valves. For the microfluidic assay, 0.1% n-dodecyl-beta-D-maltoside (DDM) was added to all buffers to prevent bead clumping (indicated by /DDM in the buffer name). […] For BCR-ABL kinase immunocapture, the off-chip assay used agarose protein NG beads (40-160 μm; Pierce, Rockford, Ill.) and the on-chip assay used smaller and more sturdy Protein G polystyrene beads (6.7 μm; Spherotech Inc., Lake Forest, Calif.). The large average size and fragility of the agarose beads precluded their use on-chip, and the small size of the polystyrene beads made them impractical for the pipeting-based off-chip assay. Both bead types were coated with anti-c-ABL antibody (OP20, EMD Chemicals).

Consider `CCCCCCCCCCCCO[C@@H]1O[C@H](CO)[C@@H](O[C@H]2O[C@H](CO)[C@@H](O)[C@H](O)[C@H]2O)[C@H](O)[C@H]1O` [DDM, n-dodecyl-beta-D-maltoside], for which the “effect on BCR-ABL kinase activity” value is given as “no detectable effect”.
